# Experimental data as given in patent publication US20230210831A1, “CHRONIC KIDNEY DISEASE TREATMENT OR PREVENTION METHOD” (Japan Tobacco Inc., priority 2019, published 2023).
# How the values were obtained:
# Assay type in all cases: cell-based
# [1] = test system: Salmonella typhimurium TA1537; assay: Ames test (reverse mutation test), TA1537
# Procedure: (§1) The solvent used herein was dimethyl sulfoxide (DMSO, 100 µL/plate).
# (§2) The mixtures were preincubated at 37° C. for 20 minutes while shaking. […] Two plates per treatment were used.
# [2] = test system: Salmonella typhimurium TA98; assay: Ames test (reverse mutation test), TA98
# Procedure: as §1, §2
# [3] = test system: Salmonella typhimurium TA1535; assay: Ames test (reverse mutation test), TA1535
# Procedure: as §1, §2
# [4] = test system: Escherichia coli WP2uvrA; assay: Ames test (reverse mutation test), WP2uvrA
# Procedure: as §1, §2
# [5] = test system: Salmonella typhimurium TA100; assay: Ames test (reverse mutation test), TA100
# Procedure: as §1, §2
structure (smiles),measurement,setting,value
Cc1ccc(-n2nc(N)cc2-c2cccc(OCC(F)(F)F)c2)cc1 [Metabolite F],Number of revertant colonies TA1537,"[1]; S9 Mix +, dose 2.3 µg/plate",41
same,Number of revertant colonies TA1537,"[1]; S9 Mix +, dose 6.9 µg/plate",92
same,Number of revertant colonies TA1537,"[1]; S9 Mix +, dose 21 µg/plate",157
same,Number of revertant colonies TA1537,"[1]; S9 Mix +, dose 62 µg/plate",227
same,Number of revertant colonies TA1537,"[1]; S9 Mix +, dose 185 µg/plate",151
same,Number of revertant colonies TA1537,"[1]; S9 Mix +, dose 556 µg/plate",54
same,Number of revertant colonies TA1537,"[1]; S9 Mix +, dose 1667 µg/plate",39
same,Number of revertant colonies TA1537,"[1]; S9 Mix +, dose 5000 µg/plate",3
same,Number of revertant colonies TA1537,"[1]; S9 Mix -, dose 2.3 µg/plate",9
same,Number of revertant colonies TA1537,"[1]; S9 Mix -, dose 6.9 µg/plate",16
same,Number of revertant colonies TA1537,"[1]; S9 Mix -, dose 21 µg/plate",16
same,Number of revertant colonies TA1537,"[1]; S9 Mix -, dose 62 µg/plate",10
same,Number of revertant colonies TA1537,"[1]; S9 Mix -, dose 185 µg/plate",3
same,Number of revertant colonies TA1537,"[1]; S9 Mix -, dose 556 µg/plate",0
same,Number of revertant colonies TA1537,"[1]; S9 Mix -, dose 1667 µg/plate",0
same,Number of revertant colonies TA1537,"[1]; S9 Mix -, dose 5000 µg/plate",0
same,potential to induce reverse mutations,[1]; TA1537 with S9 mix,showed potential to induce reverse mutations
same,Number of revertant colonies TA98,"[2]; S9 Mix +, dose 2.3 µg/plate",93
same,Number of revertant colonies TA98,"[2]; S9 Mix +, dose 6.9 µg/plate",218
same,Number of revertant colonies TA98,"[2]; S9 Mix +, dose 21 µg/plate",522
same,Number of revertant colonies TA98,"[2]; S9 Mix +, dose 62 µg/plate",484
same,Number of revertant colonies TA98,"[2]; S9 Mix +, dose 185 µg/plate",287
same,Number of revertant colonies TA98,"[2]; S9 Mix +, dose 556 µg/plate",151
same,Number of revertant colonies TA98,"[2]; S9 Mix +, dose 1667 µg/plate",61
same,Number of revertant colonies TA98,"[2]; S9 Mix +, dose 5000 µg/plate",0
same,Number of revertant colonies TA98,"[2]; S9 Mix -, dose 2.3 µg/plate",25
same,Number of revertant colonies TA98,"[2]; S9 Mix -, dose 6.9 µg/plate",32
same,Number of revertant colonies TA98,"[2]; S9 Mix -, dose 21 µg/plate",21
same,Number of revertant colonies TA98,"[2]; S9 Mix -, dose 62 µg/plate",21
same,Number of revertant colonies TA98,"[2]; S9 Mix -, dose 185 µg/plate",20
same,Number of revertant colonies TA98,"[2]; S9 Mix -, dose 556 µg/plate",19
same,Number of revertant colonies TA98,"[2]; S9 Mix -, dose 1667 µg/plate",6
same,Number of revertant colonies TA98,"[2]; S9 Mix -, dose 5000 µg/plate",0
same,potential to induce reverse mutations,[2]; TA98 with S9 mix,showed potential to induce reverse mutations
same,Number of revertant colonies TA1535,"[3]; S9 Mix +, dose 1667 µg/plate",0
same,Number of revertant colonies TA1535,"[3]; S9 Mix -, dose 556 µg/plate",0
same,Number of revertant colonies TA1535,"[3]; S9 Mix -, dose 1667 µg/plate",0
same,Number of revertant colonies WP2uvrA,"[4]; S9 Mix +, dose 2.3 µg/plate",25
same,Number of revertant colonies WP2uvrA,"[4]; S9 Mix +, dose 6.9 µg/plate",20
same,Number of revertant colonies WP2uvrA,"[4]; S9 Mix +, dose 21 µg/plate",30
same,Number of revertant colonies WP2uvrA,"[4]; S9 Mix +, dose 62 µg/plate",24
same,Number of revertant colonies WP2uvrA,"[4]; S9 Mix +, dose 185 µg/plate",20
same,Number of revertant colonies WP2uvrA,"[4]; S9 Mix +, dose 556 µg/plate",24
same,Number of revertant colonies WP2uvrA,"[4]; S9 Mix +, dose 1667 µg/plate",16
same,Number of revertant colonies WP2uvrA,"[4]; S9 Mix +, dose 5000 µg/plate",6
same,Number of revertant colonies WP2uvrA,"[4]; S9 Mix -, dose 2.3 µg/plate",24
same,Number of revertant colonies WP2uvrA,"[4]; S9 Mix -, dose 6.9 µg/plate",23
same,Number of revertant colonies WP2uvrA,"[4]; S9 Mix -, dose 21 µg/plate",26
same,Number of revertant colonies WP2uvrA,"[4]; S9 Mix -, dose 62 µg/plate",19
same,Number of revertant colonies WP2uvrA,"[4]; S9 Mix -, dose 185 µg/plate",13
same,Number of revertant colonies WP2uvrA,"[4]; S9 Mix -, dose 556 µg/plate",74
same,Number of revertant colonies WP2uvrA,"[4]; S9 Mix -, dose 1667 µg/plate",8
same,Number of revertant colonies WP2uvrA,"[4]; S9 Mix -, dose 5000 µg/plate",5
same,potential to induce reverse mutations,[4]; WP2uvrA without S9 mix,showed potential to induce reverse mutations
same,Number of revertant colonies TA100,"[5]; S9 Mix +, dose 2.3 µg/plate",553
same,Number of revertant colonies TA100,"[5]; S9 Mix +, dose 6.9 µg/plate",1417
same,Number of revertant colonies TA100,"[5]; S9 Mix +, dose 21 µg/plate",2888
same,Number of revertant colonies TA100,"[5]; S9 Mix +, dose 62 µg/plate",3713
same,Number of revertant colonies TA100,"[5]; S9 Mix +, dose 185 µg/plate",2889
same,Number of revertant colonies TA100,"[5]; S9 Mix +, dose 556 µg/plate",1288
same,Number of revertant colonies TA100,"[5]; S9 Mix +, dose 1667 µg/plate",1576
same,Number of revertant colonies TA100,"[5]; S9 Mix +, dose 5000 µg/plate",1160
same,Number of revertant colonies TA100,"[5]; S9 Mix -, dose 2.3 µg/plate",107
same,Number of revertant colonies TA100,"[5]; S9 Mix -, dose 6.9 µg/plate",104
same,Number of revertant colonies TA100,"[5]; S9 Mix -, dose 21 µg/plate",115
same,Number of revertant colonies TA100,"[5]; S9 Mix -, dose 62 µg/plate",109
same,Number of revertant colonies TA100,"[5]; S9 Mix -, dose 185 µg/plate",93
same,Number of revertant colonies TA100,"[5]; S9 Mix -, dose 556 µg/plate",62
same,Number of revertant colonies TA100,"[5]; S9 Mix -, dose 1667 µg/plate",58
same,Number of revertant colonies TA100,"[5]; S9 Mix -, dose 5000 µg/plate",40
same,potential to induce reverse mutations,[5]; TA100 with S9 mix,showed potential to induce reverse mutations
